Laboratory results reported in ChEMBL document CHEMBL1156829 (Proc Natl Acad Sci U S A, 2008).

Experiments:
[1] = NOVARTIS: Cytotoxicity against human hepatocellular carcinoma cell line (Huh7); assay type: toxicity, cell-based, Huh-7; details: Huh7 cells (hepatocellular carcinoma cell line)
Plasmodium falciparum [2] = assay: NOVARTIS: Inhibition of Plasmodium falciparum W2 (drug-resistant) proliferation in erythrocyte-based infection assay; assay type: functional, organism-based; details: Plasmodium falciparum, W2; read-out: EC50
Plasmodium falciparum [3] = assay: NOVARTIS: Inhibition of Plasmodium falciparum 3D7 (drug-susceptible) proliferation in erythrocyte-based infection assay; assay type: functional, organism-based; details: Plasmodium falciparum, 3D7

| SMILES | CC50 [1] [nM] | EC50 (Plasmodium falciparum [2]) [nM] | EC50 (Plasmodium falciparum [3]) [nM] |
| --- | --- | --- | --- |
| CC1CNC2C(C)C3C(CC4C5CCC6CC(N)CCC6(C)C5CCC43C)OC2(O)C1 (stereo not drawn) | > 10000 | < 12.7 | 863 |
| CCc1cccc2c(C#N)cn(CC(=O)Nc3ccc(OC)cc3)c12 | > 100000 | 126 | 225 |
| CC(C)(C)c1ccc(O)c(CNC2CCCCC2)c1 | 60100 | 67.8 | 250 |
| CCOc1ccc(-n2c(=S)sc3c(=O)n(-c4ccc(C)cc4)c(SCC(=O)Nc4cc(OC)ccc4OC)nc32)cc1 | > 100000 | 123 | 285 |
| COC1=CC(C)=C[C@@H](C)[C@@H](O)[C@H](C)CC(C)=CC=C[C@H](OC)[C@@H](C(C)C(O)[C@H](C)[C@@]2(O)C[C@@H](O)[C@H](C)[C@@H](C(C)C)O2)OC1=O (stereo partly drawn) | > 10000 | 11.3 | 1490 |
| CCN(CC)CCCC(C)N=c1cc(C=Cc2ccc([N+](=O)[O-])cc2)[nH]c2ccc(OC)cc12 (stereo not drawn) | 11700 | 14 | 20.9 |
| CC(C)c1nc(N2CCN(C(=S)NCc3ccccc3)CC2)c(C#N)c2c1COC(C)(C)C2 | > 100000 | 112 | 183 |
| C=CCN1Cc2ccc(C(=O)NCc3ccccc3)cc2N=C1c1ccc(F)cc1 | > 12600 | < 14.2 | > 1250 |
| CCCOC(=O)C1=C(C)NC2=C(C(=O)CC(c3ccc(OC)c(OC)c3)C2)C1c1cccc(C)c1 (stereo not drawn) | 32000 | 35.9 | 91.3 |
| COc1ccc(OC)c(C2CC(=O)C3=C(C2)NC(=O)CC3c2ccc(OC)c(OC)c2)c1 (stereo not drawn) | > 100000 | 118 | 616 |
| O=C(NCCCCNc1ccnc2cc(Cl)ccc12)c1ccccc1Cl | > 12000 | < 13.7 | 761 |
| COC1=C(Nc2cccc(C(F)(F)F)c2)C(=O)c2ccccc2C1=O | > 100000 | 114 | 263 |
| COc1cc(OC)c(N(C)C(=O)c2cn(C3CCCC3)c(=O)c3c2c2ccccc2n3C)cc1Cl | 47200 | 55.3 | 97.7 |
| CCOC(=O)C1=C(C)NC2=C(C(=O)CC(c3ccc(Cl)cc3)C2)C1c1ccc(Br)cc1 (stereo not drawn) | > 100000 | 116 | 378 |
| CCN(CC)CCNc1ccnc2ccc([N+](=O)[O-])cc12 | > 100000 | 115 | 89.8 |
| O=C(Nc1ccc(C(=O)Nc2cccc(C3=NCCN3)c2)cc1)c1ccc(C2=NCCN2)cc1 | > 100000 | 128 | 193 |
| Nc1nonc1-n1nnc(-c2ccccc2)c1C(=O)NN=Cc1ccc(F)c(Br)c1 | > 100000 | 119 | 342 |
| CCNc1nc(NC(C)CC)nc(ON=C(C)C)n1 (stereo not drawn) | > 100000 | 118 | 441 |
| COc1ccc2c(c1)-c1c(ssc1=S)C(C)(C)N2C(=O)c1ccccc1F | > 100000 | 118 | 652 |
| CCOC(=O)c1cnc2c(OC)cccc2c1Nc1ccc(C(C)=O)cc1 | > 100000 | 123 | 592 |
| Nc1cc(C(=O)Nc2ccc(C3=NCCCN3)cc2)ccc1C(=O)Nc1ccc(C2=NCCCN2)cc1 | > 100000 | 123 | 190 |
| COc1ccc(C2CC(=O)C3=C(C2)NC(=O)CC3c2ccc(C(F)(F)F)cc2)cc1OC (stereo not drawn) | > 100000 | 123 | 182 |
| O=C(NC(=CC=Cc1ccccc1)C(=O)N1CCOCC1)c1ccccc1 | > 100000 | 122 | 3860 |
| Cc1noc(C)c1S(=O)(=O)N(Cc1ccccc1)CC(O)CN1CCC(NC(=O)c2ccc(F)cc2)C1 (stereo not drawn) | > 10000 | < 12.1 | 447 |
| CCOc1cc(C2CC(=O)NC3=C2C(=O)CC(c2cc(OC)ccc2OC)C3)ccc1O (stereo not drawn) | > 100000 | 123 | 431 |
| c1ccc2cc3c(Nc4ccc(N5CCOCC5)cc4)ccnc3cc2c1 | 69500 | 83.9 | 672 |

| SMILES | CC50 [1] [nM] | EC50 (Plasmodium falciparum [2]) [nM] | EC50 (Plasmodium falciparum [3]) [nM] |
| --- | --- | --- | --- |
| CN1CCN=C1c1ccc(NC(=O)c2ccc(C(=O)Nc3ccc(C4=NCCN4C)cc3)cc2)cc1 | > 10000 | 12 | 91.1 |
| C[N+](C)(CCCC(=O)c1ccc(C(=O)CCC[N+](C)(C)Cc2ccccc2Cl)cc1)Cc1ccccc1Cl | > 100000 | 113 | 21.3 |
| CC(C)CN1C(=O)c2ccccc2C(C(=O)Nc2ccc(F)c(Cl)c2)C1c1cccs1 (stereo not drawn) | > 95200 | 120 | 121 |
| CC(=O)c1cccc(NC(=O)NC2CC3CCCC(C2)N3CCc2ccccc2)c1 (stereo not drawn) | > 10000 | 12.6 | 17.3 |
| COc1ccc(C2CC(=O)C3=C(C2)NC(C)=C(C(=O)OC2CCCC2)C3c2ccc(Cl)cc2)cc1 (stereo not drawn) | > 100000 | 125 | 260 |
| Cc1cc(F)ccc1NC(=O)C(C)n1c2ccccc2c2nc(=O)cc(C)n21 (stereo not drawn) | > 100000 | 126 | 283 |
| CC12CCC(C(=O)N(CC(O)Cn3c4ccc(Cl)cc4c4cc(Cl)ccc43)C1=O)C2(C)C (stereo not drawn) | > 100000 | 120 | 118 |
| Nc1nonc1-n1nnc(C(=O)NN=Cc2ccc(F)c(Br)c2)c1-c1ccc([N+](=O)[O-])cc1 | > 100000 | 128 | 292 |
| O=C(Nc1cc(Cl)cc(Cl)c1)Nc1ccccc1C(=O)NCC1CC1 | > 10000 | < 12.4 | > 1180 |
| Cc1ccc2c(c1)C(C)(c1ccc(Cl)cc1)CC(C)(C)N2C(=O)COc1ccc2ccccc2c1 (stereo not drawn) | > 100000 | 124 | > 12500 |
| COc1cc(NC(C)CCCN(Cc2ccc(N(C)C)cc2)S(=O)(=O)c2c(C)cc(C)cc2C)c2ncccc2c1 (stereo not drawn) | > 10600 | < 13.4 | 533 |
| CCOC(=O)C1=C(C)NC2=C(C(=O)CC(c3ccc(OC)c(OC)c3)C2)C1c1ccc(SC)cc1 (stereo not drawn) | > 100000 | 127 | 302 |
| COc1ccc(C=NNc2nc3cc(Cl)ccc3[nH]2)cc1OC | > 89800 | 111 | 239 |
| CCOC(=O)C(=CNc1ccc(I)cn1)C(=O)OCC | > 10000 | < 12.6 | 190 |
| COC(=O)[C@@H]1C[C@@H](NC(=O)c2ccc(OC)cc2OC)CN1Cc1ccc(C)cc1C | > 100000 | 126 | 303 |
| Cc1ccn2c(NC(C)(C)CC(C)(C)C)c(-c3ccccc3OC(=O)CC(C)C)nc2c1 | > 10000 | < 11.5 | 772 |
| Cc1ccc(F)cc1NC(=O)c1cc(Cl)ccc1Nc1ccccc1 | > 100000 | 115 | 191 |
| CC1(C)C(=O)C2(CCCCC2)C(=O)OC1/C=C/c1ccccc1 (stereo not drawn) | > 10000 | 12.3 | > 1250 |
| OC1=C2C(=Nc3ccccc3SC2c2ccc(Br)cc2)c2ccccc21 (stereo not drawn) | > 48000 | 57.7 | 337 |
| COc1ccccc1NC(=S)N1CCN(c2ccc([N+](=O)[O-])cc2)CC1 | > 100000 | 113 | 577 |
| Cc1ccc(C)c(-c2csc(Nc3ccc(C)c(C)c3)n2)c1 | > 100000 | 116 | 493 |
| N=c1c2c(n(Cc3ccc(Cl)cc3)c3c1CCC3)CCC2 | > 100000 | 125 | 62.7 |
| COc1ccccc1NC(=O)N(Cc1ccccc1)C(C)c1nc2ccccc2c(=O)n1-c1cc(C)ccc1C (stereo not drawn) | > 6060 | < 6.88 | 451 |
| CC1OC(=O)C(C(C)C)NC(=O)C(C(C)C)OC(=O)C(C(C)C)NC(=O)C(C)OC(=O)C(C(C)C)NC(=O)C(C(C)C)OC(=O)C(C(C)C)NC(=O)C(C)OC(=O)C(C(C)C)NC(=O)C(C(C)C)OC(=O)C(C(C)C)NC1=O (stereo not drawn) | > 10000 | 11.7 | 91.6 |
| O=C(C=Cc1cccnc1)C12CC3CC(CC(C3)C1)C2 | > 100000 | 122 | 216 |
